ChEMBL document CHEMBL1151186, “Ether-linked biflavonoids from Quintinia acutifolia” (J Nat Prod, 2004)
≈ marks a conversion by molar mass, not a printed value. Calls of active or inactive are those of the source. No cut-off for these calls is given here.

Columns and labels:
Bacillus subtilis [1] = assay: Antimicrobial activity against Bacillus subtilis ATCC 19659 at 30 ug/disk; format: functional; details: read-out: IZ
P388 [2] = assay: Cytotoxicity against mouse P388 cells at 0.06 ug/mL; format: functional
Bacillus subtilis [3] = assay: Antimicrobial activity against Bacillus subtilis ATCC 19659 at 150 ug/disk; format: functional, organism-based
P388 [4] = assay: Cytotoxicity against mouse P388 cells; format: functional, cell-based

Compound	zone of inhibition at 30 µg/disc (Bacillus subtilis [1]) [mm]	Activity (P388 [2]) [%]	Activity (Bacillus subtilis [3])	IC50 (P388 [4]) [µg/mL]
O=C(N[C@H](CO)[C@H](O)c1ccc([N+](=O)[O-])cc1)C(Cl)Cl [CHLORAMPHENICOL]	12	–	–	–
CO[C@@]12[C@H](COC(N)=O)C3=C(C(=O)C(C)=C(N)C3=O)N1C[C@@H]1N[C@@H]12 [MITOMYCIN]	–	43	–	–
O=C1CC(c2ccc(Oc3cc(C4CC(=O)c5c(O)cc(O)cc5O4)ccc3O)cc2)Oc2cc(O)cc(O)c21 (centres undefined)	–	–	inactive	8.2 (≈ 15.1 µM)
COc1cc(O)c2c(c1)OC(c1ccc(O)c(Oc3ccc(C4CC(=O)c5c(O)cc(O)cc5O4)cc3)c1)CC2=O (centres undefined)	–	–	inactive	–
COc1cc(O)c2c(c1)OC(c1ccc(Oc3cc(C4CC(=O)c5c(O)cc(OC)cc5O4)ccc3O)cc1)CC2=O (centres undefined)	–	–	inactive	8.7 (≈ 15.2 µM)
O=C1CC(c2ccc(Oc3cc(-c4cc(=O)c5c(O)cc(O)cc5o4)ccc3O)cc2)Oc2cc(O)cc(O)c21 (centres undefined)	–	–	inactive	3.1 (≈ 5.74 µM)
